Results reported in PMC9698702, “Efficient Preparation of High-Purity Fucoxanthinol by SpyTag-Tailored Active Cholesterol Esterase Aggregates” (Marine Drugs, 2022).

Tested on: T1, free cholesterol esterase
T1 construct: commercial Pseudomonas cholesterol esterase (Sigma-Aldrich), free
Test: coupled cholesterol oxidase/peroxidase assay at […] nm, Lineweaver-Burk
Type: biochemical
Conditions: free enzyme; taurocholate, pH 7.0, 37 °C; substrate of the kinetic run not named, taken from the activity assay

Km: 48.8 µM
Compound: CCCCCCCC/C=C\CCCCCCCC(=O)O[C@H]1CC[C@@]2(C)C(=CC[C@H]3[C@@H]4CC[C@H]([C@H](C)CCCC(C)C)[C@@]4(C)CC[C@@H]32)C1 [cholesteryl oleate]
